Measured values reported in article PMC10768847 (Journal of medicinal chemistry, 2023).
Read-outs that look alike come from different tables or passages of the source. Where a SMILES comes first, the peptide text is derived from it. [ ]: non-standard residue; d: D form. The star is where a group is joined. Orn(α-tetramethylguanidino) = CN(C)C(=N[C@@H](CCCN)C(=O)*)N(C)C; Arg(Me) = CNC(=N)NCCC[C@H](N)C(=O)O; dLeu(ol) = CC(C)C[C@@H](N)CO; NHIsopentyl = CC(C)CCN*

How the values were obtained:
[1] = system: E. coli BL21; format: cell-based, Escherichia coli; conditions: for Fold change: MIC compared to that of Api-137; for MIC: microbroth dilution, 96-well plates, E. coli BL21 OD600 = 0.002 in 0.3 Tryptic Soy Broth, overnight at 37 °C, visible cell density, run in duplicate
[2] = system: E. coli BL21 RF2(R262C); assay: Minimum inhibitory concentration against release factor mutant strain; format: cell-based, Escherichia coli; conditions: Table 5; release factor mutant resistant to Api-137

Compound | Fold change ([1]; Table 3) | MIC ([1]; Table 3) [µM] | other results
CC[C@H](C)[C@H](NC(=O)[C@H](Cc1ccc(O)cc1)NC(=O)[C@@H](NC(=O)[C@@H]1CCCN1C(=O)[C@H](CCCNC(=N)N)NC(=O)[C@H](CC(N)=O)NC(=O)[C@H](CC(N)=O)NC(=O)[C@H](CCCN)N=C(N(C)C)N(C)C)C(C)C)C(=O)N1CCC[C@H]1C(=O)N[C@@H](CCCNC(=N)N)C(=O)N1CCC[C@H]1C(=O)N[C@@H](CCCNC(=N)N)C(=O)N1CCC[C@H]1C(=O)N1CCC[C@H]1C(=O)N[C@@H](Cc1c[nH]c2ccccc12)C(=O)N1CCC[C@H]1C(=O)N[C@@H](CCCNC(=N)N)C(=O)N[C@@H](CC(C)C)C(=O)O [Compound 14] ({Orn(α-tetramethylguanidino)}-NNRPVYIPRPRPPWPRL-OH) |  |  | Fold change ([1]; Table 2): 8–16; MIC ([1]; Table 2): 1.2 to 2.5 µM
CC[C@H](C)[C@H](NC(=O)[C@H](Cc1ccc(O)cc1)NC(=O)[C@@H](NC(=O)[C@@H]1CCCN1C(=O)[C@H](CCCNC(=N)N)NC(=O)[C@H](CC(N)=O)NC(=O)[C@H](CC(N)=O)NC(=O)[C@H](CCCN)N=C(N(C)C)N(C)C)C(C)C)C(=O)N1CCC[C@H]1C(=O)N[C@@H](CCCNC(=N)N)C(=O)N1CCC[C@H]1C(=O)N[C@@H](CCCNC(=N)N)C(=O)N1CCC[C@H]1C(=O)N1CCC[C@H]1C(=O)N[C@@H](Cc1c[nH]cn1)C(=O)N1CCC[C@H]1C(=O)N[C@@H](CCCNC(=N)NC)C(=O)N[C@@H](CC(C)C)C(=O)O [Compound 3] ({Orn(α-tetramethylguanidino)}-NNRPVYIPRPRPPHP[Arg(Me)]L-OH) |  |  | minimum inhibitory concentration, BL21 RF2(R262C) [2]: >25
CC[C@H](C)[C@H](NC(=O)[C@H](Cc1ccc(O)cc1)NC(=O)[C@@H](NC(=O)[C@@H]1CCCN1C(=O)[C@H](CCCNC(=N)N)NC(=O)[C@H](CC(N)=O)NC(=O)[C@H](CC(N)=O)NC(=O)[C@H](CCCN)N=C(N(C)C)N(C)C)C(C)C)C(=O)N1CCC[C@H]1C(=O)N[C@@H](CCCNC(=N)N)C(=O)N1CCC[C@H]1C(=O)N[C@@H](CCCNC(=N)N)C(=O)N1CCC[C@H]1C(=O)N1CCC[C@H]1C(=O)N[C@@H](Cc1c[nH]cn1)C(=O)N1CCC[C@H]1C(=O)N[C@@H](CCCNC(=N)N)C(=O)N[C@@H](CO)CC(C)C [Compound 6] ({Orn(α-tetramethylguanidino)}-NNRPVYIPRPRPPHPR[dLeu(ol)]) |  |  | Fold change ([1]; Table 1): 62–128
gu-ONNRPVYIPRPRPPHPRL-OH [Compound 23] | 2 | 0.16 to 0.3 | 
gu-ONNRPVYIPRPRPPHPRL-OH [Compound 21] | 2–4 |  | 
gu-ONNRPVYIPRPRPPHPRL-OH [Compound 18] | 4 | 0.62 | 
gu-ONNRPVYIPRPRPPHPRL-OH [Compound 15] | 4 | 0.62 | 
gu-ONNRPVYIPRPRPPHPRL-OH [Compound 25] |  | 0.08 to 0.16 | 
gu-ONNRPVYIPRPRPPHPRL-OH [Compound 26] | 1 | 0.08 to 0.16 | 
CC[C@H](C)[C@H](NC(=O)[C@H](Cc1ccc(O)cc1)NC(=O)[C@@H](NC(=O)[C@@H]1CCCN1C(=O)[C@H](CCCNC(=N)N)NC(=O)[C@H](CC(N)=O)NC(=O)[C@H](CC(N)=O)NC(=O)[C@H](CCCN)N=C(N(C)C)N(C)C)C(C)C)C(=O)N1CCC[C@H]1C(=O)N[C@@H](CCCNC(=N)N)C(=O)N1CCC[C@H]1C(=O)N[C@@H](CCCNC(=N)N)C(=O)N1CCC[C@H]1C(=O)N1CCC[C@H]1C(=O)N[C@@H](Cc1c[nH]cn1)C(=O)N1CCC[C@H]1C(=O)N[C@@H](CCCNC(=N)N)C(=O)NCCC(C)C [Compound 4] ({Orn(α-tetramethylguanidino)}-NNRPVYIPRPRPPHPR-NHIsopentyl) |  |  | MIC ([1]; Table 1): > 40 µM
gu-ONNRPVYIPRPRPPHPRL-OH [Compound 22] | 2–4 |  | 
